Some test systems named below: HCT-116 colon; OVCAR-8 ovarian; HS 578T breast; NCI/ADR-RES ovarian; DU-145 prostate; UACC-62 melanoma; SF-268 CNS; MDA-MB-435; T-47D breast; CCRF-CEM leukemia; HOP-92 NSCLC.
Assay in all cases: NCI anticancer screen, dose series, 48 h

Several values for one entry are separate records, joined by “and”; a condition that tells them apart may be missing. Identical values can stand only once.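 Each compound was tested at five concentrations against cells in 96-well plates for 48 hours. Here, GI50 denotes the concentration required for 50% inhibition of growth. The concentration for full growth arrest is given as TGI.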 Some results are limits rather than exact numbers.

Take `N/N=C1/C2CN3CCN(C2)CC1(c1ccc([N+](=O)[O-])cc1)C3`: the TGI in the assay on HCT-116 colon, with OVCAR-8 ovarian, in the assay on HS 578T breast, in the assay with NCI/ADR-RES ovarian, in the assay with DU-145 prostate and with UACC-62 melanoma was > 100 µM each time. Besides, the TGI in the assay on SF-268 CNS and with MDA-MB-435 was > 100 µM each time.

As for `Clc1ccc(N2N=C(c3cccc(Nc4ccncc4)c3)CC2c2ccc3c(c2)OCO3)cc1` (stereo not drawn), the GI50 in the assay with T-47D breast was 2.13 µM; in the assay with NCI/ADR-RES ovarian, 1.64 µM; in the assay with DU-145 prostate, 1.84 µM; in the assay with UACC-62 melanoma it was 1.76 µM; in the assay with SF-268 CNS, 1.63 µM; in the assay on MDA-MB-435, 1.53 µM. In addition, the GI50 in the assay with CCRF-CEM leukemia was 3.18 µM; in the assay on HOP-92 NSCLC it was 1.24 µM. Moreover, the TGI was 5.07 µM in the assay with T-47D breast; 3.17 µM in the assay with NCI/ADR-RES ovarian; 3.39 µM in the assay on DU-145 prostate; 3.32 µM in the assay with UACC-62 melanoma; 3.32 µM with SF-268 CNS; 3.02 µM in the assay on MDA-MB-435. Further, the TGI was 15.9 µM in the assay with CCRF-CEM leukemia and 2.86 µM in the assay with HOP-92 NSCLC.

With `CC[N+](C)(CC)CCC(O)(c1ccccc1)c1ccccc1`, the TGI with HCT-116 colon, in the assay on OVCAR-8 ovarian, in the assay with T-47D breast, in the assay with HS 578T breast, with NCI/ADR-RES ovarian and in the assay on DU-145 prostate was > 100 µM in each case. For the same compound, the TGI in the assay on UACC-62 melanoma, in the assay on SF-268 CNS, in the assay with MDA-MB-435 and with CCRF-CEM leukemia was > 100 µM in each case.

For the compound `C/C(=N\NC(=S)N1CCCCC1)c1cccc(C)n1`, the TGI in the assay on OVCAR-8 ovarian was 2.1 µM; in the assay on T-47D breast, 16.9 µM; with HS 578T breast, > 100 µM; with NCI/ADR-RES ovarian, 0.258 µM; in the assay on DU-145 prostate, 2.22 µM; in the assay with UACC-62 melanoma it was 0.352 µM. Further, the TGI came to 4.23 µM in the assay with SF-268 CNS, 16.8 µM with MDA-MB-435 and 11.3 µM in the assay on HOP-92 NSCLC.

Regarding `N#Cc1nc(CCCCCN2C(=O)c3ccccc3C2=O)oc1N`, the TGI in the assay on HCT-116 colon, in the assay with OVCAR-8 ovarian, in the assay on T-47D breast, with HS 578T breast, in the assay with NCI/ADR-RES ovarian and in the assay with DU-145 prostate was > 100 µM each time. The TGI with SF-268 CNS was > 100 µM; in the assay with MDA-MB-435 it was > 100 µM; with CCRF-CEM leukemia, 74.5 µM.

Consider `[Cl][Pt+2][Cl].[NH-]C1CCCCC1[NH-]` (stereo not drawn), for which the TGI was > 100 µM and 16 µM in the assay on HCT-116 colon; > 100 µM in the assay on OVCAR-8 ovarian; > 60.6 µM and > 100 µM and 13.1 µM with NCI/ADR-RES ovarian; 43.4 µM and > 100 µM and 17.3 µM with UACC-62 melanoma; 56.7 µM and > 100 µM and > 58.3 µM with SF-268 CNS; > 100 µM with CCRF-CEM leukemia. For the same compound, in the assay with HOP-92 NSCLC, the TGI was > 100 µM. The GI50 was 11.7 µM and 10.1 µM and 1.47 µM in the assay on UACC-62 melanoma; 3.19 µM and 2.91 µM and 0.872 µM in the assay on CCRF-CEM leukemia; 35.3 µM and > 100 µM and 29.7 µM with HOP-92 NSCLC.

`OCC1OC(n2cnc3cncnc32)C(O)C1O` (stereo not drawn): the TGI in the assay on HCT-116 colon is 1.23 µM; in the assay with OVCAR-8 ovarian, 3.17 µM; in the assay with NCI/ADR-RES ovarian, 2.25 µM; in the assay with UACC-62 melanoma, 2.46 µM; in the assay on SF-268 CNS, 2.98 µM; in the assay with CCRF-CEM leukemia, > 26.1 µM. The compound also showed a TGI in the assay on HOP-92 NSCLC of 4.21 µM.

Turning to `Cc1ccccc1-n1c(C)nc2c1C(=O)c1ccccc1C2=O`, the TGI in the assay on HCT-116 colon, in the assay on OVCAR-8 ovarian, in the assay on UACC-62 melanoma, with SF-268 CNS and with CCRF-CEM leukemia was > 100 µM throughout.

On to `Cc1ccc(C(=O)N/N=C(\N=Nc2cccc(Cl)c2)c2ccc(N(CCC#N)CCC#N)cc2C)cc1`, for which the TGI in the assay with HCT-116 colon, in the assay on OVCAR-8 ovarian, in the assay with T-47D breast, in the assay on NCI/ADR-RES ovarian, with DU-145 prostate and in the assay with UACC-62 melanoma was > 100 µM in each case. Further, the TGI in the assay with MDA-MB-435, with CCRF-CEM leukemia and with HOP-92 NSCLC was > 100 µM each time.

Take `CN(C)CCNC(=O)c1ccc(NCCCN(C)CCCNc2ccc3c(=O)n(CCN(C)C)c(=O)n4c5ccccc5c(=O)c2c34)c2c(=O)c3ccccc3[nH]c12`: the TGI was 0.0704 µM in the assay with HCT-116 colon; 0.885 µM with OVCAR-8 ovarian; 1.89 µM in the assay on T-47D breast; 3.32 µM in the assay on NCI/ADR-RES ovarian; 0.239 µM with UACC-62 melanoma; 0.326 µM with SF-268 CNS. In addition, the values for the TGI with MDA-MB-435 and in the assay with HOP-92 NSCLC were 0.18 µM and 2.92 µM, respectively.

Consider `Cc1ccc(C(C)(C)C[P+](C)(c2ccccc2)c2ccccc2)cc1`, for which the TGI is > 58.1 µM with HCT-116 colon; > 100 µM in the assay with OVCAR-8 ovarian; > 100 µM with NCI/ADR-RES ovarian; 61.4 µM in the assay with UACC-62 melanoma; > 100 µM in the assay on SF-268 CNS; > 79.3 µM in the assay with CCRF-CEM leukemia. The TGI in the assay with HOP-92 NSCLC stood at 9.5 µM.

`Cc1ccc(C2=NOC(=O)[C@@H]3CCCC[C@@H]23)cc1`: the TGI in the assay on HCT-116 colon, in the assay on OVCAR-8 ovarian, in the assay on T-47D breast, with HS 578T breast, in the assay with NCI/ADR-RES ovarian and in the assay with DU-145 prostate was > 100 µM throughout. The TGI in the assay with UACC-62 melanoma, with SF-268 CNS, in the assay on MDA-MB-435 and in the assay with CCRF-CEM leukemia was > 100 µM throughout.

For `COc1cc2nc(-c3ccc4ccccc4c3)[nH]c(=O)c2cc1OC`, the TGI with HCT-116 colon, in the assay with OVCAR-8 ovarian, with T-47D breast, in the assay on HS 578T breast, in the assay with NCI/ADR-RES ovarian and in the assay with DU-145 prostate was > 100 µM throughout. For the same compound, the TGI with UACC-62 melanoma, in the assay on SF-268 CNS, with CCRF-CEM leukemia and with HOP-92 NSCLC was > 100 µM throughout.

On to `O=C(NCc1cccc(C(F)(F)F)c1)c1cc2sccc2nc1C(F)(F)F`, for which the TGI with HCT-116 colon is > 100 µM; in the assay with OVCAR-8 ovarian, > 100 µM; with T-47D breast, > 100 µM; in the assay on HS 578T breast it was 94.1 µM; in the assay with NCI/ADR-RES ovarian, > 100 µM; in the assay with UACC-62 melanoma it was > 100 µM. Further, the TGI with SF-268 CNS, in the assay on MDA-MB-435, in the assay on CCRF-CEM leukemia and in the assay on HOP-92 NSCLC was > 100 µM in each case.

For the origin of these results see PubChem BioAssay (NCI).
